Reference: the COVID Moonshot data (paper PMC11187573), “Identification of SARS-CoV-2 Mpro inhibitors through deep reinforcement learning for de novo drug design and computational chemistry approaches” (RSC Medicinal Chemistry, 2024)

How the values were obtained:
[1] = target: SARS-CoV-2 Main Protease (SARS-CoV-2) (UniProt P0DTD1)
[2] = target: SARS-CoV-2 Main Protease (SARS-CoV-2) (UniProt P0DTD1); remark: listed apart in the source

| Structure (SMILES) | inhibition ([1]; 50.0 µM) [%] | relative solubility at 20 uM | relative solubility at 100 uM | inhibition ([2]; 20.0 µM) [%] | inhibition ([2]; 50.0 µM) [%] | IC50 [1] [nM] | inhibition ([1]; 20.0 µM) [%] | IC50 [2] [nM] |
| --- | --- | --- | --- | --- | --- | --- | --- | --- |
| O=C(O)[C@@H](Cc1nc(=O)cc[nH]1)NCc1ccc(Cl)s1 (stereo in doubt) | 2.07 | 1.01 | 1 | 6.7 | 4.85 | – | – | – |
| O=C(Cc1cccnc1)NCc1ccccc1 | 13 | 1 | 1 | 1.31 | 7.29 | – | – | – |
| C=CC(=O)N(c1ccc(C(C)(C)C)cc1)C(C(=O)NCCc1cccc(F)c1)c1cccnc1 (stereo not drawn) | 100 | 0.98 | 0.55 | 63.3 | 83.4 | 3360 | 91.8 | – |
| N#Cc1cnn(-c2ccccc2NC(=O)Cc2ccn[nH]2)c1N | – | 1 | 0.96 | -9.14 | 2.96 | – | 0 | – |
| C=CC(=O)N(c1ccc(C(C)(C)CC)cc1)C(C(=O)Nc1ccc(Br)cc1)c1cccnc1 (stereo not drawn) | – | 0.91 | 0.66 | 8.32 | 18.4 | – | 0 | – |
| O=C(NCCNc1ccccc1)c1cc(=O)[nH]c2ccccc12 | 35.4 | 1 | 0.98 | 32 | 61.6 | – | – | – |
| COc1ccnc(NC(=O)Cc2ccc3ccccc3c2)c1 | 17.1 | 0.95 | 0.91 | 3.47 | 6.09 | – | 0 | – |
| O=C(O)[C@@H](Cc1nc(=O)cc[nH]1)NC[C@@H]1C[C@@H]2C=C[C@H]1C2 (stereo in doubt) | 29.5 | 1 | 1 | 13.7 | 26.4 | – | – | – |
| Cc1ccc(C)c(NC(=O)[C@H]2CNC(=O)C2)c1 (stereo in doubt) | 0 | 0.98 | 0.98 | -14.9 | -9.38 | – | – | – |
| O=C(CCl)N1CCN(S(=O)(=O)c2ccsc2)CC1 | – | 1 | 1 | 78.6 | 73.7 | 484 | 96.4 | 1630 |
| O=C(NCc1ccns1)Nc1cccc(CN2CCCC2=O)c1 | 0 | 1 | 0.97 | -0.28 | -2.05 | – | 0 | – |
| CC(=O)N1CCN(S(=O)(=O)C2=CC[SH]=C2)CC1 | 3.62 | 0.99 | 1 | – | -20.6 | – | 0 | – |
| O=C(c1cc(=O)[nH]c2ccc(Cl)cc12)N1CCN(S(=O)(=O)c2ccccc2)CC1 | 22.8 | 0.94 | 0.93 | 10.6 | 23.9 | – | – | – |
| N#Cc1ccccc1S(=O)(=O)N1CCN(C(=O)c2cc(=O)[nH]c3cc(F)ccc23)CC1 | 0 | 0.94 | 0.95 | 1.1 | 52.4 | – | – | – |
| C=CC(=O)N1CCN(Cc2c[nH]c3ccc(C#N)cc23)CC1 | 0 | 0.97 | 0.92 | -36.2 | -27.1 | – | 0 | – |
| Cc1ccc(C)c(N(C)C(=O)Cc2cnn(C)c2C)c1 | 0 | 0.97 | 0.98 | 7.75 | 11.4 | – | – | – |
| O=C(C(F)Cl)N1CCCC(c2nc3ccccc3s2)C1 (stereo not drawn) | 0 | 0.99 | 0.99 | 7.1 | 16.2 | – | 0 | – |
| CCCN(CC1COc2ccccc2O1)C(=O)c1cc(=O)[nH]c2cc(F)ccc12 (stereo not drawn) | 0 | 0.98 | 0.98 | 5.21 | 8.33 | – | – | – |
| O=C(Cn1nnc2ccccc21)N(Cc1ccsc1)c1ccc(-c2ccccc2)cc1 | 36.1 | 0.64 | 0.5 | 30.4 | 39.1 | – | – | – |
